Reference: patent US11033539B2, “Compounds of formulas (VII), (VIII), (IX), (XI), (XII), (XIII), and (XIV) as muscarinic receptor 4(M4) antagonists for treating neurological diseases” (Neurocrine Biosciences, Inc., priority 2015, dated 2021)

The molecules below were run against human M4 receptor (Homo sapiens (Human), UniProt P08173) (assay: Radioligand (tritiated N-methylscopolamine) binding assay, M4). Settings: Ki against the M4 receptor; membranes from CHO cells expressing human M4; tritiated N-methylscopolamine 1.5 nM; read-out: Ki.
Chain of human M4 receptor (P08173 whole entry): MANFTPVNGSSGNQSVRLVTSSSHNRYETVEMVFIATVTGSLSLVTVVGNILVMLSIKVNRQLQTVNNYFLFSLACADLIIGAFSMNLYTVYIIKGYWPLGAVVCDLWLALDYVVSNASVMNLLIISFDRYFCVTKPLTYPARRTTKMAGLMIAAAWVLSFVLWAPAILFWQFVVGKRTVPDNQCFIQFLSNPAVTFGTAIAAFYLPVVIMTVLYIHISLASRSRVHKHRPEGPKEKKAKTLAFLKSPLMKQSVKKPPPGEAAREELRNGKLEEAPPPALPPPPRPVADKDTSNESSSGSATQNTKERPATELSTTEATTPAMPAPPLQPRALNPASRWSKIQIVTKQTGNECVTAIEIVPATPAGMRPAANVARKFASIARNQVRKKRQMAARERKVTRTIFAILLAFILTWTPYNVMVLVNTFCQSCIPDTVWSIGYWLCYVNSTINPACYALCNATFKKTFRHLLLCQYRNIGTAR
Experimental: Binding affinity (Ki) of compounds was measured by inhibition of radioligand binding to membranes from CHO cells expressing human M1, M2, M3, M4 and M5 receptors. Membranes were prepared by nitrogen cavitation and differential centrifugation as previously described (Hoare et al., Mol. Pharmacol. 2003 March; 63(3): 751-65). The radioligand employed was tritiated N-methylscopolamine, used at a concentration of 1.5 nM. A dose-response of twelve concentrations of compound was used, ranging from 10 μM to […]. The assay buffer was 50 mM HEPES, 100 mM NaCl, 5 mM MgCl2, 1 mM ethylenediaminetetraacetic acid, pH-adjusted to pH 7.4. Membranes, radioligand and compound were incubated together for 90 minutes at 37° C., in a total volume of 150 μl in a 96-well plate. Receptor-bound radioligand was then collected by harvesting the assay over glass fiber filters pretreated with polyethylenimine to trap the cell membranes, using rapid vacuum filtration. Harvesting and radioactivity counting was conducted as previously described (see, e.g., Hoare et al., Mol. Pharmacol. 2003 63(3):751-65); Erratum at Mol. Pharmacol. 2005 July; 68(1): 260).

Row | Structure (SMILES) | Ki
1 | C[C@@H]1CN(c2cc(F)c(F)c(F)c2)CCN1C(=O)NCCC1CCN(Cc2cccc(F)c2F)CC1 [6-17, (2R)-N-(2-{1-[(2,3-difluorophenyl)methyl]piperidin-4-yl}ethyl)-2-methyl-4-(3,4,5-trifluorophenyl)piperazine-1-carboxamide] | 10 to 100 nM
2 | CO[C@H](CNC(=O)N1CCN(c2ccc(F)c(C#N)c2)C[C@H]1C)C1CCN(Cc2ccccc2)CC1 [3-6, (2R)-N-[(2S)-2-(1-benzylpiperidin-4-yl)-2-methoxyethyl]-4-(3-cyano-4-fluorophenyl)-2-methylpiperazine-1-carboxamide] | 10 to 100 nM
3 | C[C@H]1CN(c2cc(F)c(F)c(F)c2)CCN1C(=O)NCCC1CCN(Cc2ccccc2)CC1 [4-24, (2S)-N-[2-(1-benzylpiperidin-4-yl)ethyl]-2-methyl-4-(3,4,5-trifluorophenyl)piperazine-1-carboxamide] | 10 to 100 nM
4 | C[C@@H]1CN(c2cccc(F)c2F)CCN1C(=O)NCCC1CCN(Cc2ccccc2)CC1 [4-37, (2R)-N-[2-(1-benzylpiperidin-4-yl)ethyl]-4-(2,3-difluorophenyl)-2-methylpiperazine-1-carboxamide] | 10 to 100 nM
5 | Nc1nc(N2CCN(C(=O)NCCC3CCN(Cc4ccccc4)CC3)CC2)ncc1F [5-34, 4-(4-amino-5-fluoropyrimidin-2-yl)-N-[2-(1-benzylpiperidin-4-yl)ethyl]piperazine-1-carboxamide] | 100 to 1000 nM
6 | C[C@@H]1CN(c2ncc(F)cn2)CCN1C(=O)NCCC1CCN(Cc2ccccc2)CC1 [4-41, (2R)-N-[2-(1-benzylpiperidin-4-yl)ethyl]-4-(5-fluoropyrimidin-2-yl)-2-methylpiperazine-1-carboxamide] | 10 to 100 nM
7 | C[C@@H]1CN(c2ncc(C#N)cn2)C[C@H](C)N1C(=O)NCCC1CCN(Cc2ccc(B(O)O)cc2)CC1 [6-63, (4-{[4-(2-{[(2R,6S)-4-(5-cyanopyrimidin-2-yl)-2,6-dimethyl-piperazine-1-carbonyl]amino}ethyl)piperidin-1-yl]methyl}phenyl)boronic acid] | 100 to 1000 nM
8 | C[C@@H]1CN(c2cnc(C(F)(F)F)nc2)C[C@H](C)N1C(=O)NCCC1CCN(Cc2ccccc2F)CC1 [6-52, (2R,6S)-N-(2-{1-[(2-fluorophenyl)methyl]piperidin-4-yl}ethyl)-2,6-dimethyl-4-[2-(trifluoromethyl)pyrimidin-5-yl]piperazine-1-carboxamide] | 10 to 100 nM
9 | C[C@@H]1CN(c2ncc(C#N)cc2F)C[C@H](C)N1C(=O)NCCC1CCN(Cc2ccccc2)CC1 [4-78, (2S,6R)-N-[2-(1-benzylpiperidin-4-yl)ethyl]-4-(5-cyano-3-fluoropyridin-2-yl)-2,6-dimethylpiperazine-1-carboxamide] | 10 to 100 nM
10 | COc1cccnc1N1CCN(C(=O)NCCC2CCN(Cc3ccccc3)CC2)[C@H](C)C1 [4-8, (2R)-N-[2-(1-benzylpiperidin-4-yl)ethyl]-4-(3-methoxypyridin-2-yl)-2-methylpiperazine-1-carboxamide] | 100 to 1000 nM
11 | C[C@@H]1CN(c2cncc(F)c2)CCN1C(=O)NCCC1CCN(Cc2ccccc2)CC1 [4-61, (2R)-N-[2-(1-benzylpiperidin-4-yl)ethyl]-4-(5-fluoropyridin-3-yl)-2-methylpiperazine-1-carboxamide] | 100 to 1000 nM
12 | COc1ccccc1CN1CCC(CCNC(=O)N2[C@H](C)CN(c3ncc(C#N)cn3)C[C@@H]2C)CC1 [6-67, (2R,6S)-4-(5-cyanopyrimidin-2-yl)-N-(2-{1-[(2-methoxyphenyl)-methyl]piperidin-4-yl}ethyl)-2,6-dimethylpiperazine-1-carboxamide] | 10 to 100 nM
13 | C[C@@H]1CN(c2cc(F)c(F)c(F)c2)CCN1C(=O)NCCC1CCN(Cc2cccc(F)c2)CC1 [6-10, (2R)-N-(2-{1-[(3-fluorophenyl)methyl]piperidin-4-yl}ethyl)-2-methyl-4-(3,4,5-trifluorophenyl)piperazine-1-carboxamide] | 10 to 100 nM

More lines, now with the values ahead:

Row | Ki | Structure (SMILES)
14 | 100 to 1000 nM | O=C(NCCC1CCN(Cc2ccccc2)CC1)N1CCC(O)(c2ccc(Cl)cc2)CC1 [8-23, N-[2-(1-benzylpiperidin-4-yl)ethyl]-4-(4-chlorophenyl)-4-hydroxypiperidine-1-carboxamide]
15 | 100 to 1000 nM | CN(CCNC(=O)C1CCN(c2ccc(OC(F)(F)F)c(F)c2)CC1)C1CN(Cc2ccccc2)CC1CO (stereo not drawn) [9-35, N-(2-{[1-benzyl-4-(hydroxymethyl)pyrrolidin-3-yl](methyl)amino}ethyl)-1-[3-fluoro-4-(trifluoromethoxy)phenyl]piperidine-4-carboxamide]
16 | 10 to 100 nM | O=C(NCCC1CCN(Cc2ccccc2)CC1)N1CCC(c2ccc(Cl)cc2)CC1 [8-4, N-[2-(1-benzylpiperidin-4-yl)ethyl]-4-(4-chlorophenyl)piperidine-1-carboxamide]
17 | 100 to 1000 nM | N#Cc1ccc(N2CCC(C(=O)NCCC3CCN(Cc4ccccc4)CC3)CC2)nc1 [9-47, N-[2-(1-benzylpiperidin-4-yl)ethyl]-1-(5-cyanopyridin-2-yl)piperidine-4-carboxamide]
18 | 10 to 100 nM | CN(CCNC(=O)C1CCN(c2cccc(OC(F)(F)F)c2)CC1)[C@H]1CCN(Cc2ccccc2)C1 [9-31, N-(2-{[(3S)-1-benzylpyrrolidin-3-yl](methyl)amino}ethyl)-1-[3-(trifluoromethoxy)phenyl]piperidine-4-carboxamide]
19 | 10 to 100 nM | O=C(NCCC1CCN(Cc2ccccc2)CC1)C1(F)CCN(c2ccc(OC(F)(F)F)cc2)CC1 [10-55, N-[2-(1-benzylpiperidin-4-yl)ethyl]-4-fluoro-1-[4-(trifluoromethoxy)phenyl]piperidine-4-carboxamide]
20 | 100 to 1000 nM | O=C(NCCC1CCN(Cc2ccccc2)CC1)N1CCC(c2ccccc2F)CC1 [8-32, N-[2-(1-benzylpiperidin-4-yl)ethyl]-4-(2-fluorophenyl)piperidine-1-carboxamide]
21 | 100 to 1000 nM | N#Cc1ccnc(N2CCC(C(=O)NCCC3CCN(Cc4ccccc4)CC3)CC2)c1 [10-66, N-[2-(1-benzylpiperidin-4-yl)ethyl]-1-(4-cyanopyridin-2-yl)piperidine-4-carboxamide]
22 | 100 to 1000 nM | Cc1cc(Cl)c(-c2cc(C(=O)NCCC3CCN(Cc4ccccc4)CC3)ccc2Cl)cn1 [9-67, N-[2-(1-benzylpiperidin-4-yl)ethyl]-4-chloro-3-(4-chloro-6-methylpyridin-3-yl)benzamide]
23 | 100 to 1000 nM | COc1ccc(C2CCN(C(=O)NCCC3CCN(Cc4ccccc4)CC3)CC2)cc1 [8-24, N-[2-(1-benzylpiperidin-4-yl)ethyl]-4-(4-methoxyphenyl)piperidine-1-carboxamide]
24 | 100 to 1000 nM | O=C(CCC1CCN(Cc2ccccc2)CC1)NC1CCN(c2ccc(OC(F)(F)F)cc2)CC1 [9-36, 3-(1-benzylpiperidin-4-yl)-N-{1-[4-(trifluoromethoxy)phenyl]piperidin-4-yl}propanamide]
25 | 100 to 1000 nM | COc1cccc(C2CCN(C(=O)NCCC3CCN(Cc4ccccc4)CC3)CC2)c1 [8-5, N-[2-(1-benzylpiperidin-4-yl)ethyl]-4-(3-methoxyphenyl)piperidine-1-carboxamide]
26 | 10 to 100 nM | O=C(OCCC1CCN(Cc2ccccc2)CC1)N1CCN(c2cccc(OC(F)(F)F)c2)CC1 [12-4, 2-(1-benzylpiperidin-4-yl)ethyl 4-[3-(trifluoromethoxy)phenyl]piperazine-1-carboxylate]
27 | 100 to 1000 nM | O=C(NCCC1CCN(Cc2cccc(F)c2)CC1)c1ccc(OCc2ccccc2)cc1 [11-24, 4-(benzyloxy)-N-(2-{1-[(3-fluorophenyl)methyl]piperidin-4-yl}ethyl)benzamide]
28 | 10 to 100 nM | O=C(NCCC1(CO)CCN(Cc2ccccc2)CC1)C1CCN(c2ccc(OC(F)(F)F)cc2)CC1 [9-13, N-{2-[1-benzyl-4-(hydroxymethyl)piperidin-4-yl]ethyl}-1-[4-(trifluoromethoxy)phenyl]piperidine-4-carboxamide]
29 | 100 to 1000 nM | O=C(NCCC1CCN(Cc2ccccc2)CC1)N1CCC(c2c[nH]c3ccccc23)CC1 [8-30, N-[2-(1-benzylpiperidin-4-yl)ethyl]-4-(1H-indol-3-yl)piperidine-1-carboxamide]
30 | 10 to 100 nM | C[C@@H]1CN(c2ccc(F)c(C#N)c2)CCN1C(=O)NCCC1(CO)CCN(Cc2ccccc2)CC1 [7-2, (2R)-N-{2-[1-benzyl-4-(hydroxymethyl)piperidin-4-yl]ethyl}-4-(3-cyano-4-fluorophenyl)-2-methylpiperazine-1-carboxamide]
31 | 100 to 1000 nM | C[C@@H]1CN(c2ncc(C(=O)NCCF)cn2)C[C@H](C)N1C(=O)NCCC1CCN(Cc2ccccc2)CC1 [27-7]
32 | 10 to 100 nM | C[C@@H]1CN(c2ccc(C#N)c(N(C)C)c2)CCN1C(=O)NCCC1CCN(Cc2ccccc2)CC1 [22-26]
33 | 100 to 1000 nM | COc1ccc(N2CCC(C(=O)NCCC3CCN(Cc4ccccc4)CC3)CC2)cc1C#N [10-2, N-[2-(1-benzylpiperidin-4-yl)ethyl]-1-(3-cyano-4-methoxyphenyl)piperidine-4-carboxamide]
34 | 100 to 1000 nM | Cc1ccc(N2CCN(C(=O)NCCC3CCN(Cc4ccccc4)CC3)CC2)c(CO)c1 [8-43, N-[2-(1-benzylpiperidin-4-yl)ethyl]-4-[2-(hydroxymethyl)-4-methylphenyl]piperazine-1-carboxamide]
35 | 100 to 1000 nM | O=C(NCCC1CCN(Cc2ccccc2)CC1)Nc1ccc(Oc2ccccc2)cc1 [8-41, 3-[2-(1-benzylpiperidin-4-yl)ethyl]-1-(4-phenoxyphenyl)urea]
36 | 100 to 1000 nM | O=C(NCCC1CCN(Cc2ccccc2)CC1)N1CCN(c2ncccn2)CC1 [8-29, N-[2-(1-benzylpiperidin-4-yl)ethyl]-4-(pyrimidin-2-yl)piperazine-1-carboxamide]
